Results from patent US12643882B2, “Inhibitors of human respiratory syncytial virus and metapneumovirus” (priority 2022, dated 2026).
Like-named read-outs stand apart in the source and are kept apart here.

Assays:
RSV-A2-GFP virus = assay: microbe, parasite or virus in culture; assay type: cell-based, Human Respiratory Syncytial Virus
Description: To set up the assay, ARF vials were thawed in a 37° C. water bath and a control compound was resuspended in assay media DMEM (Dulbecco's Modified Eagle Medium) containing 2% FBS, 100 U/ml Penicillin-Streptomycin.
GFP sequence was derived from pJTI™ R4 Dest CMV N-EmGFP pA Vector (Invitrogen) and was cloned into the intergenic sequence between wild-type RSV-A2 P and M genes using standard recombineering techniques. Recombinant RSV-A2-GFP was propagated in Hep2 cells (human cells contain HeLa marker chromosomes and were derived via HeLa contamination, ATCC CCL-23) with a Multiplicity of Infection (MOI) of 0.1. Virus was harvested 3 days after infection by collecting all culture material and then freeze-thawing the mixture for 5 min. Working virus stocks were generated by thawing frozen viral cultures in 37° C. water bath, which were centrifuged at 218 g for 15 min at 4° C. 1/10 of 10×SPG (Biological Industries 06-3061-01-5A) were added and then mixed. The supernatant was aliquoted, frozen in liquid nitrogen, and then transferred to a −80° C. freezer for storage. Virus titer was determined by automated plaque assay in HEp-2 cells following methods described previously (Wen Z. et al.; 2019).
Calu-1 cells were purchased from ATCC (Cat #HTB-54) and were expanded in growth media (DMEM containing 10% FBS, 100 U/ml Penicillin-Streptomycin). To make ARF, cell culture media was removed and discarded and the cell layer was briefly rinsed with PBS to remove serum. 2.5 mL of TrypLE Express solution were added and cells incubated until dislodged, to which growth media was added and the cells were resuspended by gentle pipetting. Cells were counted for concentration and viability as determined by ViCell. Cells were centrifuged at RT, 300 g for 5 minutes to pellet cells. The supernatant was gently aspirated and the pellet was flicked to loosen cells. Cells were resuspended in an appropriate volume of freezing medium (DMEM containing 10% DMSO, 10% FBS, 100 U/ml Penicillin-Streptomycin) to achieve a concentration of 5×10^6 cells/mL. 1 mL aliquots of the cell suspension were transferred to freezing vials. The vials were put into an upright container in a −80° C. freezer overnight before transferring vials to liquid nitrogen for storage.
Assay ready freezedown (ARF, generation described separately) Calu-1 cells (ATCC HTB-54) were used. Compound plates were prepared by dispensing compounds dissolved in DMSO into the wells of a 384 well Corning® 3985 plate with an ECHO acoustic dispenser and compounds were tested in 10-point serial 3-fold dilution. […] To set up the assay, ARF vial(s) were thawed in a 37° C. water bath and were then resuspended into assay media (DMEM containing 2% FBS, 100 U/ml Penicillin-Streptomycin). Cells were counted using default parameters on ViCell and diluted to 20,000 cells/mL in assay media. RSV-A2-GFP virus was added to cells at 24,000 pfu/ml (MOI=1.2) and mixed by gentle inversion. 10 μL/well of 100% DMSO was dispensed as CellTiter-Glo (CTG) assay Max_E controls wells. The cells were dispensed at 50 μL/well using Bravo with 50 μL filtered tips into compound plates. Plates were covered with MicroClime lids, loaded with 7.5 mL of assay media to minimize evaporation, and were incubated at 37° C. and 5% CO2 for 96 hrs. Following incubation, distinct, GFP-expressing cells were counted using an Acumen imaging system with appropriate settings. A same-well CTG assay was performed by adding 10 μL/well reconstituted CellTiter-Glo reagent (Promega G7573) and plates were read on PerkinElmer Envision according to manufacturer's instructions. Raw data were loaded and analyzed in ActivityBase. Antiviral IC50 and cytotoxicity CC50 values were determined using a 4 parameter logistic fit based on the Levenberg-Marquardt algorithm. Model: 205-4 Parameter Logistic.

hMPV-GFP virus = assay: microbe, parasite or virus in culture; assay type: cell-based, human metapneumovirus
Description: GFP expressing rgHMPV #3 p3 was generated in Dr. Buchholz's lab (Biacchesi S. et al., J Virol. 2007 June; 81(11): 6057-6067) and propagated in VERO cells (ATCC Cat #CCL-81) with a Multiplicity of Infection (MOI) of 0.1. Virus was harvested 4 days after infection by collecting cultured material and was freeze-thaw cycled in liquid nitrogen twice. Working virus stocks were generated from thawing frozen samples in 37° C. water bath, which were centrifuged at 218 g for 15 min at 4° C. 1/10 of 10×SPG (Biological Industries 06-3061-01-5A) were added and then mixed. The supernatant was aliquoted, frozen in liquid nitrogen, and then transferred to a −80° C. freezer for storage. Virus titer was determined by performing titration test in 96-well plates and calculate approximate virus titer using GFP event/well data.
Compound plates were prepared by dispensing compounds dissolved in DMSO into wells of a 384 well Corning 3985 polystyrene flat clear bottom optical imaging microplate (202.5 nL/well) using an ECHO acoustic dispenser. Each compound was tested in 10-point serial 3-fold dilution (typical final concentrations: 40,300 nM-2 nM). […] Continuous culture of VERO cells was maintained in complete culture media (OptiMEM supplemented with 2 mM GlutaMAX™ and 100 U/ml Penicillin-Streptomycin). To set up the assay, VERO cells were trypsinized with 0.25% Trypsin-EDTA until cells were dislodged, then cells were re-suspended with 1 mL FBS. Cells were spun down at 300 g for 5 minutes and cells were washed twice with culture media and counted using default parameters on ViCell. Cells were then diluted to 100,000 cells/mL (5,000 cells/50 μL) in complete culture media+TrypLE Select (80 μL/mL). hMPV-GFP virus was added to cells at 125,000 pfu/mL (MOI=1.25) and were mixed by gentle inversion. 10 μL/well of 100% DMSO was dispensed to CellTiter-Glo (CTG) assay Max_E controls wells. Cells were dispensed at 50 μL/well using Bravo and 50 μL filtered tips into compound plates. Plates were covered with MicroClime lids and loaded with 7.5 mL of assay media to minimize evaporation. Plates were lightly shaken for 10 minutes at room temperature and then incubated at 37° C. and 5% CO2 for 48 hrs. Following incubation, distinct GFP-expressing cells were counted using an Acumen imaging system with appropriate settings. A same-well CTG assay was performed by adding 10 μL/well reconstituted CellTiter-Glo reagent (Promega G7573) and plates were read on PerkinElmer Envision according to manufacturer's instructions. Raw data were loaded and analyzed in ActivityBase. Antiviral IC50 and cytotoxicity CC50 values were determined using a 4 parameter logistic fit based on the Levenberg-Marquardt algorithm. Model: 205-4 Parameter Logistic. • References: Wen Z, Citron M, Bett A J, Espeseth A S, Vora K A, Zhang L, DiStefano D J. Development and application of a higher throughput RSV plaque assay by immunofluorescent imaging. J Virol Methods. 2019 January; 263:88-95. doi: 10.1016/j.jviromet.2018.10.022. Epub 2018 Oct. 28. PMD: 30381239. • Biacchesi S, Murphy B R, Collins P L, Buchholz U J. Frequent frameshift and point mutations in the SH gene of human metapneumovirus passaged in vitro. J Virol. 2007 June; 81(11):6057-67. doi: 10.1128/JVL.00128-07. Epub 2007 Mar. 21. PMID: 17376897; PMCID: MC 1900297. Assay Data

[1] = Calu-1 cells infected with RSV-A2-GFP, 96 hrs, GFP-expressing cells counted, read-out: RSV EC50
[2] = VERO cells infected with hMPV-GFP, 48 hrs, GFP-expressing cells counted, read-out: hMPV EC50
[3] = read-out: RSV EC50, Calu-1 cells infected with RSV-A2-GFP, 96 hrs, GFP-expressing cells counted
[4] = human metapneumovirus, Vero, 48 h, read-out: hMPV EC50, VERO cells infected with hMPV-GFP, 48 hrs, GFP-expressing cells counted
[5] = read-out: hMPV EC50, VERO cells infected with hMPV-GFP, 48 hrs, GFP-expressing cells counted
[6] = human respiratory syncytial virus, Calu-1, 96 h, read-out: RSV EC50, Calu-1 cells infected with RSV-A2-GFP, 96 hrs, GFP-expressing cells counted

Molecule Cc1nc(-c2ncccn2)sc1C(=O)N1C[C@@H]2C(Oc3cc(C(C)(C)N)cc(C4=CCC(C)CC4)n3)[C@@H]2C1 (mixture of isomers) [Example 46, rac-((1R,5S,6s)-6-((4-(2-aminopropan-2-yl)-6-(4-methylcyclohex-1-en-1-yl)pyridin-2-yl)oxy)-3-azabicyclo[3.1.0]hexan-3-yl)(4-methyl-2-(pyrimidin-2-yl)thiazol-5-yl)methanone] has an EC50 (RSV-A2-GFP virus; [1]) of less than 10 nM and an EC50 (hMPV-GFP virus; [2]) greater than 100 nM.

Molecule Cc1nc(-c2ncccn2)sc1C(=O)N1C[C@@H]2C(Oc3cc(C(C)(C)N)cc(C4=CCC(C(F)(F)F)CC4)n3)[C@@H]2C1 (mixture of isomers) [Example 47, rac-((1R,5S,6s)-6-((4-(2-aminopropan-2-yl)-6-(4-(trifluoromethyl)cyclohex-1-en-1-yl)pyridin-2-yl)oxy)-3-azabicyclo[3.1.0]hexan-3-yl)(4-methyl-2-(pyrimidin-2-yl)thiazol-5-yl)methanone] has an EC50 (RSV-A2-GFP virus; [1]) of less than 10 nM and an EC50 (hMPV-GFP virus; [2]) greater than 100 nM.

Cc1nc(-c2ncccn2)sc1C(=O)N1C[C@@H]2[C@H]1C[C@H]2Oc1cc(C(C)(C)N)cc(-c2ccc(F)cc2)n1 (single isomer, unassigned) [Example 1A] was tested, and the EC50 (RSV-A2-GFP virus; [3]) was greater than 100 nM and the EC50 (hMPV-GFP virus; [4]) was greater than 100 nM.

Work on Cc1nc(-c2ncccn2)sc1C(=O)N1C[C@@H]2[C@H]1C[C@H]2Oc1cc(C(C)(C)N)cc(-c2ccc(F)cc2)n1 (single isomer, unassigned) [Example 1B] yielded an EC50 (RSV-A2-GFP virus; [3]) of less than 10 nM and an EC50 (hMPV-GFP virus; [5]) greater than 100 nM.

CC(C)(N)c1cc(O[C@@H]2C[C@@H]3[C@H]2CN3C(=O)c2cnc(-c3ncccn3)s2)nc(-c2ccc(F)cc2)c1 (single isomer, unassigned) [Example 2] gave an EC50 (RSV-A2-GFP virus; [6]) of 10 to 100 nM and an EC50 (hMPV-GFP virus; [4]) greater than 100 nM.

In the case of CC(O)c1nn(-c2ncccn2)cc1C(=O)N1C[C@@H]2C(Oc3cc(C(C)(C)N)cc(-c4ccc(F)c(F)c4)n3)[C@@H]2C1 (single isomer, unassigned; enantiomer 1) [Example 96A], the EC50 (RSV-A2-GFP virus; [1]) is reported as less than 10 nM and the EC50 (hMPV-GFP virus; [2]) is reported as greater than 100 nM.

Cc1nc(-c2ncccn2)sc1C(=O)N1C[C@H]2[C@H](Oc3cc(C(C)(C)N)cc(-c4ccc(F)cc4)n3)[C@@]2(C)C1 (single isomer, unassigned; enantiomer 1) [Example 103A] showed an EC50 (RSV-A2-GFP virus; [6]) of less than 10 nM and an EC50 (hMPV-GFP virus; [4]) of 10 to 100 nM.

Cn1nc(-c2ncccn2)cc1C(=O)N1C[C@H]2[C@H](Oc3cc(C(C)(C)N)cc(-c4ccc(F)cc4)n3)[C@@]2(C)C1 (single isomer, unassigned; enantiomer 1) [Example 104A] was tested, and the EC50 (RSV-A2-GFP virus; [6]) was less than 10 nM and the EC50 (hMPV-GFP virus; [4]) was greater than 100 nM.

Cn1nc(-c2ncccn2)cc1C(=O)N1C[C@H]2[C@H](Oc3cc(C(C)(C)N)cc(-c4ccc(F)c(F)c4)n3)[C@@]2(C)C1 (single isomer, unassigned; enantiomer 1) [Example 105A] showed an EC50 (RSV-A2-GFP virus; [6]) of less than 10 nM and an EC50 (hMPV-GFP virus; [5]) greater than 100 nM.

With Cc1nn(-c2ncccn2)cc1C(=O)N1C[C@H]2[C@H](Oc3cc(C(C)(C)N)cc(-c4ccc(F)c(F)c4)n3)[C@@]2(C)C1 (single isomer, unassigned; enantiomer 1) [Example 106A] the EC50 (RSV-A2-GFP virus; [6]) was less than 10 nM and the EC50 (hMPV-GFP virus; [5]) was greater than 100 nM.

Work on Cc1nn(-c2ncccn2)cc1C(=O)N1C[C@H]2[C@H](Oc3cc(C(C)(C)N)cc(-c4ccc(F)cc4)n3)[C@@]2(C)C1 (single isomer, unassigned; enantiomer 1) [Example 107A] yielded an EC50 (RSV-A2-GFP virus; [6]) of less than 10 nM and an EC50 (hMPV-GFP virus; [4]) greater than 100 nM.

With Cn1nc(-c2ncccn2)cc1C(=O)N1C[C@H]2[C@H](Oc3cc(C(C)(C)N)cc(-c4ccc(F)cc4F)n3)[C@@]2(C)C1 (single isomer, unassigned; enantiomer 1) [Example 108A] the EC50 (RSV-A2-GFP virus; [6]) was less than 10 nM and the EC50 (hMPV-GFP virus; [4]) was greater than 100 nM.

Cc1nc(-c2ncccn2)sc1C(=O)N1C[C@@H]2[C@H](C1)[C@H]2Oc1cc(C(C)(C)N)cc(-c2ccc(F)c(F)c2)n1 [Example 15, ((1R,5S,6s)-6-((4-(2-aminopropan-2-yl)-6-(3,4-difluorophenyl)pyridin-2-yl)oxy)-3-azabicyclo[3.1.0]hexan-3-yl)(4-methyl-2-(pyrimidin-2-yl)thiazol-5-yl)methanone] showed an EC50 (RSV-A2-GFP virus; [1]) of less than 10 nM.

With Cc1ccc(-c2cc(C(C)(C)N)cc(O[C@H]3[C@@H]4CN(C(=O)c5sc(-c6ncccn6)nc5C)C[C@@H]43)n2)cc1 [Example 21, ((1R,5S,6s)-6-((4-(2-aminopropan-2-yl)-6-(p-tolyl)pyridin-2-yl)oxy)-3-azabicyclo[3.1.0]hexan-3-yl)(4-methyl-2-(pyrimidin-2-yl)thiazol-5-yl)methanone] the EC50 (RSV-A2-GFP virus; [1]) was less than 10 nM.

Cc1nn(-c2ccccc2)cc1C(=O)N1C[C@@H]2[C@H](C1)[C@H]2Oc1cc(C(C)(C)N)cc(-c2ccc(F)cc2)n1 [Example 74, ((1R,5S,6s)-6-((4-(2-aminopropan-2-yl)-6-(4-fluorophenyl)pyridin-2-yl)oxy)-3-azabicyclo[3.1.0]hexan-3-yl)(3-methyl-1-phenyl-1H-pyrazol-4-yl)methanone] gave an EC50 (RSV-A2-GFP virus; [1]) of less than 10 nM.
